Data as given in patent US20070093520A1, “Method of treatment of diarrhea-predominant irritable bowel syndrome in a subject” (priority 2005, published 2007).

Tested on: diarrhea-predominant IBS subjects
Type: in vivo, human
Conditions: Cilansetron 2 mg, N=1454
Procedure: The study was performed in approximately 150 study centers. Approximately 1600 eligible subjects were to be given cilansetron 2 mg TID. At Visit 1, pre-treatment assessments were conducted. […] Subjects were to return to the study site one month later for Visit 3 (Day 31) for their first interim assessment. […] All subjects who discontinued from the study were to have the same post-study assessments required at Visit 7 performed at their early termination visit. […]
Stool specimens were analyzed at every visit for occult blood. An independent GERB had been established to provide advice on GI AEs during the course of the study.
Adverse events were assessed at Baseline, at each clinic visit, and at the end of the study (Month 12 or the early termination visit). All AEs, which occurred during the study were followed up in accordance with good medical practice until resolved or judged no longer clinically significant, or if a condition was chronic, until fully characterized. Adverse events could occur in the specified follow-up period and, regardless of the interval since the last administration of the study medication, were treated in the same manner as an AE which occurred during the treatment with study medication. Each AE was evaluated for duration, severity, seriousness, and causal relationship to the investigational drug. The action taken and the outcome were also recorded.
Specifically, subjects who were lost to follow-up and had no post-Baseline contact with the site were excluded from the Safety population. The subjects who discontinued from the study due to lost to follow-up were identified based on the information collected on the study termination CRF page.
After the pretreatment assessment at Visit 1 (Days […] to −3), subjects were to return to the study site for a Baseline assessment and start the treatment at Visit 2 (Day 1).
For the by time-interval analyses of disposition, prevalence of AEs, and of markedly abnormal and predefined changes in laboratory values, vital signs, and ECGs, the following interval windows were used:
Adverse events that were already present prior to the first dose of cilansetron study medication but increased in severity afterwards were considered as treatment-emergent.
The 5% cutoff point was based on the incidence within higher level terms.
Subjects were counted at most once for each primary system organ class and preferred term. Serious AEs that resolved prior to receiving study medication or occurred more than 30 days after the last dose of study medication were not included in the incidence tables. A listing of all SAEs is presented; SAEs with onset prior to receiving study medication or more than 30 days after discontinuation of study medication were flagged. The listing presents lower level term and preferred term of the SAE, severity, action taken, outcome, and relationship of the SAE, start and stop date of the SAE, study day of onset of the SAE, age, race, and sex.

Cc1nccn1C[C@H]1CCc2c(c3cccc4c3n2CCC4)C1=O [cilansetron, (R)-(−)-4,5,6,8,9,10-hexahydro-10-[(2-methyl-1H-imidazol-1-yl)methyl]-11H-pyrido-[3,2,1-jk]-carbazol-11-one]
TEAE incidence: Intestinal Haemorrhages: 22 (2%) n (%)
TEAE incidence: Intestinal Infections: 1 (<1%) n (%)
TEAE incidence: Intestinal Mucosal Hypertrophy: 1 (<1%) n (%)
TEAE incidence: Intestinal Spasm: 1 (<1%) n (%)
TEAE incidence: Investigations: 176 (12%) n (%)
TEAE incidence: Irritable Bowel Syndrome Aggravated: 13 (<1%) n (%)
TEAE incidence: Lacunar Infarction: 1 (<1%) n (%)
TEAE incidence: Liver Function Analyses: 36 (2%) n (%)
TEAE incidence: Liver Function Tests NOS Abnormal: 1 (<1%) n (%)
TEAE incidence: Loose Stools: 15 (1%) n (%)
TEAE incidence: Lumbar Spinal Cord and Nerve Root Disorders: 1 (<1%) n (%)
TEAE incidence: Lymphocyte Count Decreased: 1 (<1%) n (%)
TEAE incidence: Lymphocyte Count Increased: 1 (<1%) n (%)
TEAE incidence: Lymphocyte Percentage Decreased: 1 (<1%) n (%)
TEAE incidence: Memory Impairment: 1 (<1%) n (%)
TEAE incidence: Memory Loss (Excl Dementia): 2 (<1%) n (%)
TEAE incidence: Meralgia Paraesthetica: 1 (<1%) n (%)
TEAE incidence: Metabolism Tests NEC: 9 (<1%) n (%)
TEAE incidence: Migraine Aggravated: 1 (<1%) n (%)
TEAE incidence: Migraine Headaches: 7 (<1%) n (%)
TEAE incidence: Migraine NOS: 6 (<1%) n (%)
TEAE incidence: Mineral and Electrolyte Analyses: 4 (<1%) n (%)
TEAE incidence: Monocyte Count Increased: 1 (<1%) n (%)
TEAE incidence: Mononeuropathies: 6 (<1%) n (%)
TEAE incidence: Mouth Cyst: 1 (<1%) n (%)
TEAE incidence: Musculoskeletal and Connective Tissue Signs and Symptoms NEC: 66 (5%) n (%)
TEAE incidence: Musculoskeletal and connective tissue disorders: 129 (9%) n (%)
TEAE incidence: Narcolepsy and Hypersomnia: 1 (<1%) n (%)
TEAE incidence: Nausea Aggravated: 1 (<1%) n (%)
TEAE incidence: Nervous system disorders: 155 (11%) n (%)
TEAE incidence: Neuralgia NOS: 4 (<1%) n (%)
TEAE incidence: Neurological Signs and Symptoms NEC: 30 (2%) n (%)
TEAE incidence: Neutrophil Count Decreased: 2 (<1%) n (%)
TEAE incidence: Neutrophil Count Increased: 2 (<1%) n (%)
TEAE incidence: Neutrophil Percentage Decreased: 2 (<1%) n (%)
TEAE incidence: Nitrite Urine Present: 4 (<1%) n (%)
TEAE incidence: Non-Mechanical Ileus: 1 (<1%) n (%)
TEAE incidence: Non-Site Specific Gastrointestinal Haemorrhages: 1 (<1%) n (%)
TEAE incidence: Oesophageal Spasm: 1 (<1%) n (%)
TEAE incidence: Oesophagitis NOS: 4 (<1%) n (%)
TEAE incidence: Oral Candidiasis: 2 (<1%) n (%)
TEAE incidence: Oral Dryness and Saliva Altered: 3 (<1%) n (%)
TEAE incidence: Oral Soft Tissue Signs and Symptoms: 1 (<1%) n (%)
TEAE incidence: Otitis Externa NOS: 2 (<1%) n (%)
TEAE incidence: Otitis Media NOS: 3 (<1%) n (%)
TEAE incidence: Painful Defaecation: 1 (<1%) n (%)
TEAE incidence: Pancreatitis Acute: 1 (<1%) n (%)
TEAE incidence: Paraesthesia: 3 (<1%) n (%)
TEAE incidence: Paraesthesias and Dysaesthesias: 5 (<1%) n (%)
TEAE incidence: Periodontitis: 3 (<1%) n (%)
TEAE incidence: Peripheral Neuropathies NEC: 1 (<1%) n (%)
TEAE incidence: Peripheral Neuropathy NOS: 1 (<1%) n (%)
TEAE incidence: Peritonsillar Abscess: 1 (<1%) n (%)
TEAE incidence: Petit Mal Epilepsy: 1 (<1%) n (%)
TEAE incidence: Pharyngitis Streptococcal: 1 (<1%) n (%)
TEAE incidence: Pharyngotonsillitis: 1 (<1%) n (%)
TEAE incidence: Physical Examination Procedures: 23 (2%) n (%)
TEAE incidence: Pituitary Analyses Anterior: 2 (<1%) n (%)
TEAE incidence: Platelet Analyses: 3 (<1%) n (%)
TEAE incidence: Platelet Count Decreased: 2 (<1%) n (%)
TEAE incidence: Platelet Count Increased: 1 (<1%) n (%)
TEAE incidence: Pneumonia NOS: 6 (<1%) n (%)
TEAE incidence: Post Herpetic Neuralgia: 1 (<1%) n (%)
TEAE incidence: Proctalgia: 6 (<1%) n (%)
TEAE incidence: Protein Urine Present: 7 (<1%) n (%)
TEAE incidence: Pruritus Ani: 3 (<1%) n (%)
TEAE incidence: Pseudofolliculitis Barbae: 1 (<1%) n (%)
TEAE incidence: Pyelonephritis Acute NOS: 1 (<1%) n (%)
TEAE incidence: Pyelonephritis NOS: 3 (<1%) n (%)
TEAE incidence: Qrs Axis Abnormal: 1 (<1%) n (%)
TEAE incidence: Radiculitis Lumbosacral: 1 (<1%) n (%)
TEAE incidence: Rectal Haemorrhage: 20 (1%) n (%)
TEAE incidence: Rectal Polyp: 1 (<1%) n (%)
TEAE incidence: Rectal Prolapse: 1 (<1%) n (%)
TEAE incidence: Rectal Tenesmus: 5 (<1%) n (%)
TEAE incidence: Rectal Ulcer: 1 (<1%) n (%)
TEAE incidence: Red Blood Cell Analyses: 2 (<1%) n (%)
TEAE incidence: Red Blood Cell Count Decreased: 1 (<1%) n (%)
TEAE incidence: Red Blood Cell Sedimentation Rate Increased: 1 (<1%) n (%)
TEAE incidence: Red Blood Cells Urine Positive: 2 (<1%) n (%)
TEAE incidence: Regurgitation of Food: 1 (<1%) n (%)
TEAE incidence: Renal Function Analyses: 2 (<1%) n (%)
TEAE incidence: Restless Leg Syndrome: 1 (<1%) n (%)
TEAE incidence: Retching: 3 (<1%) n (%)
TEAE incidence: Sciatica: 3 (<1%) n (%)
TEAE incidence: Sensitivity of Teeth: 1 (<1%) n (%)
TEAE incidence: Sensory Abnormalities NEC: 6 (<1%) n (%)
TEAE incidence: Sepsis, Bacteraemia and Viraemia: 3 (<1%) n (%)
TEAE incidence: Serum Ferritin Decreased: 1 (<1%) n (%)
TEAE incidence: Sinus Headache: 1 (<1%) n (%)
TEAE incidence: Sinusitis Acute NOS: 2 (<1%) n (%)
TEAE incidence: Sinusitis Chronic NOS: 1 (<1%) n (%)
TEAE incidence: Skeletal and Cardiac Muscle Analyses: 32 (2%) n (%)
TEAE incidence: Skin and Subcutaneous Tissue Abscess NOS: 1 (<1%) n (%)
TEAE incidence: Sleep Apnoea Syndrome: 1 (<1%) n (%)
TEAE incidence: Sleep Apnoeas: 1 (<1%) n (%)
TEAE incidence: Sleep Talking: 1 (<1%) n (%)
TEAE incidence: Stomatitis: 1 (<1%) n (%)
TEAE incidence: Stomatitis and Ulceration: 2 (<1%) n (%)
TEAE incidence: Stools Watery: 2 (<1%) n (%)
TEAE incidence: Syncope: 4 (<1%) n (%)
TEAE incidence: Taeniasis: 1 (<1%) n (%)
TEAE incidence: Tension Headaches: 2 (<1%) n (%)
TEAE incidence: Tinea Pedis: 1 (<1%) n (%)
TEAE incidence: Tissue Enzyme Analyses NEC: 7 (<1%) n (%)
TEAE incidence: Tongue Disorders NEC: 1 (<1%) n (%)
TEAE incidence: Tonsillitis Acute NOS: 2 (<1%) n (%)
TEAE incidence: Tonsillitis NOS: 11 (<1%) n (%)
TEAE incidence: Tooth Abscess: 2 (<1%) n (%)
TEAE incidence: Tooth Caries NOS: 3 (<1%) n (%)
TEAE incidence: Toothache: 11 (<1%) n (%)
TEAE incidence: Torticollis: 1 (<1%) n (%)
TEAE incidence: Tracheitis NOS: 5 (<1%) n (%)
TEAE incidence: Tracheobronchitis: 1 (<1%) n (%)
